Data: publication PMC10943399 (Heliyon, 2024)
Entries after “also recorded” stand apart in the source; their conditions may differ. Like-named read-outs stand apart in the source and are kept apart here.

Assays:
[1] = system: P. falciparum 3D7 (CQ-sensitive); experiment: pLDH antimalarial assay, P. falciparum 3D7; format: cell-based, Plasmodium falciparum; conditions: for Selectivity Index (SI) (CC50MTT/EC50pLDH) P. falciparum 3D7 (CQ-sensitive): Vero CC50 / 3D7 EC50; for antimalarial activity category against CQ-sensitive P. falciparum 3D7: category by EC50 range
P. knowlesi PKA1H1 = experiment: pLDH antimalarial assay, P. knowlesi A1H1; format: cell-based, Plasmodium knowlesi; conditions: for EC50: Plasmodium knowlesi, 24 h, read-out: P. knowlesi PKA1H1 EC50 (μM) ± SD; for Selectivity Index (SI) (CC50MTT/EC50pLDH) P. knowlesi PKA1H1: Vero CC50 / PKA1H1 EC50
[2] = system: P. falciparum Gombak A (CQ-resistant); experiment: pLDH antimalarial assay, P. falciparum Gombak A; format: cell-based, Plasmodium falciparum; conditions: for EC50: 48 h; for Selectivity Index (SI) (CC50MTT/EC50pLDH) P. falciparum Gombak A (CQ-resistant): Vero CC50 / Gombak A EC50
zebrafish embryos [3] = experiment: Spontaneous tail coiling; format: in vivo, zebrafish (Danio rerio); conditions: zebrafish embryos at 24 hpf, 6.25-50 μM, vs 0.1% DMSO
Vero cell (Normal cell) = experiment: MTT cytotoxicity assay against Vero cells; format: cell-based; conditions: read-out: Vero cell (Normal cell) CC50 (μM) ± SD, 72 h, three independent experiments
zebrafish larvae = experiment: Zebrafish cardiotoxicity; format: in vivo, zebrafish (Danio rerio); conditions: zebrafish larvae at 72 hpf
[4] = system: transgenic zebrafish line Tg(kdrl:egfp); experiment: Blood vessel formation in transgenic zebrafish Tg; format: in vivo, zebrafish (Danio rerio); conditions: 30 hpf
zebrafish embryos [5] = experiment: Zebrafish embryo acute toxicity; format: in vivo, zebrafish (Danio rerio); conditions: for effect on early embryonic development: zebrafish embryos at 24 hpf
Solubility in egg water = format: physicochemical; conditions: zebrafish egg water
parasites = conditions: mice, dosage of 5 mg/kg, four days after treatment; cited from earlier work
[6] = Plasmodium falciparum, 3D7, 48 h, read-out: P. falciparum 3D7 (CQ-sensitive) EC50 (μM) ± SD, pLDH assay, 48 h, three independent experiments
[7] = read-out: P. falciparum 3D7 (CQ-sensitive) EC50 (μM) ± SD, pLDH assay, 48 h, three independent experiments
[8] = Plasmodium falciparum, read-out: P. falciparum Gombak A (CQ-resistant) EC50 (μM) ± SD, pLDH assay, 48 h, three independent experiments
[9] = up to 200 μM, 2 h after treatment
[10] = zebrafish, 72 hpf, up to 200 μM

With `O=C1C(=Cc2cccc(F)c2)CCC1=Cc1cccc(F)c1` [MS79, 2,5-Bis(3-fluorobenzylidene)cyclopentanone] the EC50 [1, 6] was > 500 µM, the EC50 [1, 7] was 329.3 ± 2.6 µM and the EC50 (P. knowlesi PKA1H1) was 195 ± 2.7 µM. The EC50 [2, 8] was > 200 µM.
For `O=C1C(=Cc2ccccc2Cl)CCCC1=Cc1ccccc1Cl` [MS47, 2,6-Bis(2-chlorobenzylidene)cyclohexanone], the EC50 [1, 6] was 16.1 ± 0.5 µM, the “Selectivity Index (SI) (CC50MTT/EC50pLDH) P. falciparum 3D7 (CQ-sensitive)” value [1] was 10.6 and the “antimalarial activity category against CQ-sensitive P. falciparum 3D7” value [1] was “active”. The EC50 (P. knowlesi PKA1H1) was 21.7 ± 1.2 µM, the “Selectivity Index (SI) (CC50MTT/EC50pLDH) P. knowlesi PKA1H1” value (P. knowlesi PKA1H1) was 7.9 and the EC50 [2, 8] was 51.4 ± 2.7 µM. The “Selectivity Index (SI) (CC50MTT/EC50pLDH) P. falciparum Gombak A (CQ-resistant)” value [2] was 3.3.
In the case of `COc1cc(C=C2CCCC(=Cc3cc(OC)c(OC)c(OC)c3)C2=O)cc(OC)c1OC` [MS72C, 2,6-Bis(3,4,5-trimethoxybenzylidene)cyclohexanone], the EC50 [1, 6] is reported as > 500 µM, the EC50 [1, 7] is reported as 515.1 ± 4.9 µM and the EC50 (P. knowlesi PKA1H1) is reported as 430.1 ± 2.3 µM. The EC50 [2, 8] was > 200 µM.
For `COc1cccc(C=CC(=O)C=Cc2cccc(OC)c2OC)c1OC` [MS33A, 1,5-Bis(2,3-dimethoxyphenyl)penta-1,4-dien-3-one], the “Selectivity Index (SI) (CC50MTT/EC50pLDH) P. falciparum 3D7 (CQ-sensitive)” value [1] was 26.6, the “antimalarial activity category against CQ-sensitive P. falciparum 3D7” value [1] was “active” and the “mean STC activity” value (zebrafish embryos [3]) was “No significant change”. For the same molecule, the CC50 (Vero cell (Normal cell)) was 82.6 ± 1.7 µM, the heart rate (zebrafish larvae; 12.5 μM) was “relatively normal” and the heart rate (zebrafish larvae; 25 and 50 μM) was “decrease in heartbeats”. The “development of intersegmental vessels (ISVs)” value (“development … (ISVs)” below) ([4]; 50 μM (not at 25 μM)) was “affected ISVs development; also recorded: inhibitory effects on ISV development”, the “effect on early embryonic development” value (zebrafish embryos [5]; 100 μM (not at 50 μM and lower)) was “gastrulation defects” and the “heart development (edema)” value (zebrafish embryos [5]; zebrafish, 72 hpf, 50 μM (not at 25 μM)) was “heart edema”. For the same molecule, the EC50 (P. knowlesi PKA1H1) was 3.6 ± 0.2 µM, the “Selectivity Index (SI) (CC50MTT/EC50pLDH) P. knowlesi PKA1H1” value (P. knowlesi PKA1H1) was 22.9 and the EC50 [2, 8] was 87.5 ± 0.9 µM. For the same molecule, the “Selectivity Index (SI) (CC50MTT/EC50pLDH) P. falciparum Gombak A (CQ-resistant)” value [2] was 1.0.
With `O=C(C=Cc1cccc(Cl)c1)C=Cc1cccc(Cl)c1` [MS40B, 1,5-Bis(3-chlorophenyl)penta-1,4-dien-3-one] the EC50 [1, 6] was 13.7 ± 0.8 µM, the “Selectivity Index (SI) (CC50MTT/EC50pLDH) P. falciparum 3D7 (CQ-sensitive)” value [1] was 12.0 and the “antimalarial activity category against CQ-sensitive P. falciparum 3D7” value [1] was “active”. The EC50 (P. knowlesi PKA1H1) was 16.6 ± 0.5 µM, the “Selectivity Index (SI) (CC50MTT/EC50pLDH) P. knowlesi PKA1H1” value (P. knowlesi PKA1H1) was 9.9 and the EC50 [2, 8] was 45.6 ± 1.3 µM. The “Selectivity Index (SI) (CC50MTT/EC50pLDH) P. falciparum Gombak A (CQ-resistant)” value [2] was 3.6.
With `COc1cccc(C=C2CCCC(=Cc3cccc(OC)c3OC)C2=O)c1OC` [MS69, 2,6-Bis(2,3-dimethoxybenzylidene)cyclohexanone] the EC50 [1, 6] was > 500 µM, the EC50 [1, 7] was 785.8 ± 4.2 µM and the EC50 (P. knowlesi PKA1H1) was 324 ± 5.9 µM. The EC50 [2, 8] was 28.7 ± 2 µM.
With `O=C1C(=Cc2ccccc2F)CCC1=Cc1ccccc1F` [MS78, 2,5-Bis(2-fluorobenzylidene)cyclopentanone] the EC50 [1, 6] was > 500 µM, the EC50 [1, 7] was 689.1 ± 4.2 µM and the EC50 (P. knowlesi PKA1H1) was 355 ± 7.1 µM. For the same molecule, the EC50 [2, 8] was > 200 µM.
With `COc1ccc(C=C2CCCC(=Cc3ccc(OC)c(OC)c3OC)C2=O)c(OC)c1OC` [MS72A, 2,6-Bis(2,3,4-trimethoxybenzylidene)cyclohexanone] the EC50 [1, 6] was > 500 µM, the EC50 [1, 7] was 530 ± 3.6 µM and the EC50 (P. knowlesi PKA1H1) was 507.5 ± 1.3 µM. For the same molecule, the EC50 [2, 8] was > 200 µM.
With `COc1cc(C=CC(=O)C=Cc2cc(OC)c(OC)c(OC)c2)cc(OC)c1OC` [MS34C, 1,5-Bis(3,4,5-trimethoxyphenyl)penta-1,4-dien-3-one] the “Selectivity Index (SI) (CC50MTT/EC50pLDH) P. falciparum 3D7 (CQ-sensitive)” value [1] was 84.0, the “antimalarial activity category against CQ-sensitive P. falciparum 3D7” value [1] was “active” and the “mean STC activity” value (zebrafish embryos [3]) was “No significant change”. The CC50 (Vero cell (Normal cell)) was 134 ± 3.2 µM, the heart rate (zebrafish larvae; [9]) was “no obvious abnormalities; also recorded: normal heart beats” and the “development … (ISVs)” value ([4]; up to 200 μM) was “no effect on normal vessel development; also recorded: no significant difference”. For the same molecule, the “effect on early embryonic development” value (zebrafish embryos [5]; up to 200 μM) was “no significant effect”, the “morphological changes / heart development” value (zebrafish embryos [5]; [10]) was “no detectable morphological changes; also recorded: no effect on normal heart development” and the EC50 (P. knowlesi PKA1H1) was 11.8 ± 1.1 µM. For the same molecule, the “Selectivity Index (SI) (CC50MTT/EC50pLDH) P. knowlesi PKA1H1” value (P. knowlesi PKA1H1) was 11.4 and the “Selectivity Index (SI) (CC50MTT/EC50pLDH) P. falciparum Gombak A (CQ-resistant)” value [2] was 15.4.
With `COc1cccc(OC)c1C=CC(=O)C=Cc1c(OC)cccc1OC` [MS33D, 1,5-Bis(2,6-dimethoxyphenyl)penta-1,4-dien-3-one] the EC50 [1, 6] was 21.7 ± 0.8 µM, the “Selectivity Index (SI) (CC50MTT/EC50pLDH) P. falciparum 3D7 (CQ-sensitive)” value [1] was 10.4 and the EC50 (P. knowlesi PKA1H1) was 23.7 ± 2.6 µM. For the same molecule, the “Selectivity Index (SI) (CC50MTT/EC50pLDH) P. knowlesi PKA1H1” value (P. knowlesi PKA1H1) was 9.5, the EC50 [2, 8] was 74.4 ± 2.4 µM and the “Selectivity Index (SI) (CC50MTT/EC50pLDH) P. falciparum Gombak A (CQ-resistant)” value [2] was 3.0.
For `COc1cc(C=C2CCC(=Cc3cc(OC)c(OC)c(OC)c3)C2=O)cc(OC)c1OC` [MS87, 2,5-Bis(3,4,5-trimethoxybenzylidene)cyclopentanone], the EC50 [1, 6] was 10.8 ± 1.3 µM, the “Selectivity Index (SI) (CC50MTT/EC50pLDH) P. falciparum 3D7 (CQ-sensitive)” value [1] was 52.2 and the “antimalarial activity category against CQ-sensitive P. falciparum 3D7” value [1] was “active”. For the same molecule, the “solubility in egg water” value (Solubility in egg water) was “problems with solubility in egg water”, the EC50 (P. knowlesi PKA1H1) was 11.4 ± 0.9 µM and the “Selectivity Index (SI) (CC50MTT/EC50pLDH) P. knowlesi PKA1H1” value (P. knowlesi PKA1H1) was 49.5. For the same molecule, the EC50 [2, 8] was 1.85 to 8.75 µM, the “Selectivity Index (SI) (CC50MTT/EC50pLDH) P. falciparum Gombak A (CQ-resistant)” value [2] was 304.9 and the EC50 ([2]; read-out: P. falciparum Gombak A (CQ-resistant) EC50 (μM) ± SD, pLDH assay, three independent experiments) was 1.85 ± 2.8 µM.
`CCN(CC)CCCC(C)Nc1ccnc2cc(Cl)ccc12` (centres unmarked) [CQ, chloroquine, reference compound] showed an EC50 [2, 8] of 5.56 ± 3.2 µM.
In the case of `COc1ccc(OC)c(C=CC(=O)C=Cc2cc(OC)ccc2OC)c1` [MS33C, 1,5-Bis(2,5-dimethoxyphenyl)penta-1,4-dien-3-one], the EC50 [1, 6] is reported as < 5 µM, the “Selectivity Index (SI) (CC50MTT/EC50pLDH) P. falciparum 3D7 (CQ-sensitive)” value [1] is reported as 65.2 and the “antimalarial activity category against CQ-sensitive P. falciparum 3D7” value [1] is reported as “active”. The EC50 [1, 7] was 2.5 ± 0.4 µM, the “mean STC activity” value (zebrafish embryos [3]) was “No significant change” and the CC50 (Vero cell (Normal cell)) was 163 ± 1.8 µM. For the same molecule, the heart rate (zebrafish larvae; [9]) was “no obvious abnormalities; also recorded: normal heart beats”, the “development … (ISVs)” value ([4]; up to 200 μM) was “no effect on normal vessel development; also recorded: no significant difference” and the “effect on early embryonic development” value (zebrafish embryos [5]; up to 200 μM) was “no significant effect”. The “morphological changes / heart development” value (zebrafish embryos [5]; [10]) was “no detectable morphological changes; also recorded: no effect on normal heart development”, the EC50 (P. knowlesi PKA1H1) was 5.1 ± 0.2 µM and the “Selectivity Index (SI) (CC50MTT/EC50pLDH) P. knowlesi PKA1H1” value (P. knowlesi PKA1H1) was 32.0. The EC50 [2, 8] was 56.2 ± 1.3 µM and the “Selectivity Index (SI) (CC50MTT/EC50pLDH) P. falciparum Gombak A (CQ-resistant)” value [2] was 2.9.
In the case of `COc1cc(/C=C/C(=O)CC(=O)/C=C/c2ccc(O)c(OC)c2)ccc1O` [free curcumin, curcumin], the suppression of parasites (parasites) is given as 40.5%.
